Assay results: patent publication US20080113907A1, “Uses Of Galectin-2” (Charite-Universitat-Smedizin Berlin, priority 2004, published 2008)

B1: Galectin-2 (ligand, UniProt P05162 1-132, looked up)
chain: MAGELEVKNMDMKPGSTLKITGSIADGTDGFVINLGQGTDKLNLHFNPRFSESTIVCNSLDGSNWGQEQREDHLCFSPGSEVKFTVTFESDKFKVKLPDGHELTFPNRLGHSHLSYLSVRGGFNMSSFKLKE
modifications: biotinylated (sites not given) in the flow cytometry binding assays; coupled to tosylactivated magnetic beads in the pull-down
notes: The NcoI site gave a Thr(Ser)2Ala substitution: Thr in human, Ser in rat; also called Gal-2; biotinylated Gal-2
B2: CD7 (receptor, human, UniProt P09564 26-240, looked up)
chain: AQEVQQSPHCTTVPVGASVNITCSTSGGLRGIYLRQLGPQPQDIIYYEDGVVPTTDRRFRGRIDFSGSQDNLTITMHRLQLSDTGTYTCQAITEVNVYGSGTLVLVTEEQSQGWHRCSDAPPRASALPAPPTGSALPDPQTASALPDPPAASALPAALAVISFLLGLGLGVACVLARTQIKKLCSWRDKNSAACVVYEDMSHSRCNTLSSPNQYQ
notes: whole, on cells

How the values were obtained:
[1] = system: CD3, CD7, β1 integrin; assay: Magnetic separation / co-immunoprecipitation of galectin containing complexes; assay type: binding, human; settings: galectin coated beads, immunoblot for CD3, CD7, β1
Protocol: For immunoblotting cells were washed in PBS, and lysed in cell lysis buffer (1% Triton-X, 0.5% NP-40, 0.1% SDS, 0.5% sodium deoxycholate, 5 mM EDTA, 50 mM and 50 mM protease- and phosphatase-inhibitor cocktail 2, 1 mM PMSF, 100 μg/ml trypsin-chymotrypsin inhibitor, 100 μg/ml chymostatin in PBS). The concentration of proteins in each lysate was measured using the Bio-Rad protein assay (Bio-Rad Laboratories, Hercules, Calif.). Equivalent amounts of protein (10 μg) were fractionated on a 10-20% Tris-glycine gel and electrotransferred to a nitrocellulose membrane (Novex, San Diego, Calif.). Membranes were blocked with 5% milk in 0.1% Tween 20-PBS (Fisher Scientific, Hanover Park, Ill.), followed by incubation for 60 m in at room temperature with the indicated primary antibody. The membranes were washed six times with 0.1% Tween 20-PBS and then incubated for 1 h with the appropriate horseradish peroxidase-conjugated secondary antibody (Santa Cruz Biotechnology), washed, and incubated with the chemiluminescent substrate (Perkin-Elmer, Carlsbad, Calif.) for 5 minutes. The membranes were then exposed to film (Amersham, Arlington Heights, Ill.). […]

[2] = system: PBT; assay: Analysis of T cell cycling (DNA content, cyclin B1, cell cycle regulators); assay type: cell-based, human; settings: anti-CD3 activated PBT; dropped from 8% (galectin-1) and 7% (galectin-7)
Protocol: For immunoblotting cells were washed in PBS, and lysed in cell lysis buffer (1% Triton-X, 0.5% NP-40, 0.1% SDS, 0.5% sodium deoxycholate, 5 mM EDTA, 50 mM and 50 mM protease- and phosphatase-inhibitor cocktail 2, 1 mM PMSF, 100 μg/ml trypsin-chymotrypsin inhibitor, 100 μg/ml chymostatin in PBS). The concentration of proteins in each lysate was measured using the Bio-Rad protein assay (Bio-Rad Laboratories, Hercules, Calif.). Equivalent amounts of protein (10 μg) were fractionated on a 10-20% Tris-glycine gel and electrotransferred to a nitrocellulose membrane (Novex, San Diego, Calif.). Membranes were blocked with 5% milk in 0.1% Tween 20-PBS (Fisher Scientific, Hanover Park, Ill.), followed by incubation for 60 m in at room temperature with the indicated primary antibody. The membranes were washed six times with 0.1% Tween 20-PBS and then incubated for 1 h with the appropriate horseradish peroxidase-conjugated secondary antibody (Santa Cruz Biotechnology), washed, and incubated with the chemiluminescent substrate (Perkin-Elmer, Carlsbad, Calif.) for 5 minutes. The membranes were then exposed to film (Amersham, Arlington Heights, Ill.).
Flow cytometry was performed after staining for DNA content, and cyclin B1, essentially as previously described (21). Briefly, cells were washed twice with PBS, adjusted to 1×10^6 cells/sample and fixed in 90% Methanol at −20° C. After fixation, cells were washed twice with PBS, incubated for 45 min at 4° C. with a cyclin B1-FITC conjugated monoclonal antibody. After the final wash, cells were resupended in PBS and 5 μl of RNase (0.6 μg/ml, 30-60 Kunitz Units, Sigma), incubated at 37° C. for 15 min and the chilled on ice. One hundred and twenty five microliters of PI (200 μg/ml) were added prior to analysis by flow cytometry. Each analysis was performed on at least 25.000 events.

[3] = system: T cells (PBT, LPT); assay: Integrin accessibility on T cell surface (flow cytometry); assay type: cell-based, human; settings: CD3 activated PBT
Protocol: For surface staining, cells were washed twice in ice-cold PBS and 1×10^6 cells were resuspended in flow buffer (HBSS containing 1% BSA and 0.1% sodium azide). Cells were incubated with the respective mAb at predetermined saturating concentrations or with isotype-matched nonspecific mouse mAb (DAKO) for 30 min at 4° C., washed twice with flow buffer, and incubated with FITC-conjugated goat anti-mouse IgG for 30 min at 4° C. The cells were again washed twice with flow buffer, fixed in 1% paraformaldehyde and analyzed by a single laser flow cytometer (FacsCalibur, […]), using Cell Quest software (BD Pharmingen). Cells stained with a negative control Ab were gated to contain <2% positive cells. To perform analysis of intracellular proteins, cells were washed twice with PBS, adjusted to 1×10^6 cells per sample, and fixed in 90% methanol at −20° C. After fixation, cells were washed twice with PBS and incubated with a monoclonal mouse anti-bax, Bcl-2, Rb, Cyclin A, p21, p27, or p53 antibody for 45 minutes at 4° C., followed by an incubation with a goat anti-mouse FITC-conjugated mAb (Biosource) for 45 minutes at 4° C. Thereafter cells were washed and analyzed by flow cytometry as described above. The background level of immunofluorescence was determined by incubating cells with FITC-conjugated mouse IgG (isotype control).

[4] = system: T cells (PBT, LPT); assay: Adhesion assay to collagen type I and fibronectin; assay type: cell-based, human; settings: CD3 activated PBT
Protocol: 96 well flat-bottom plates were precoated overnight at 4° C. with 12 μg/well fibronectin (Chemicon) in DPBS, 40 μg/well collagen type I (Sigma-Aldrich) in 0.1 M acetic acid, or 3% BSA (Sigma-Aldrich) in DPBS as a control and then washed three times with DPBS. Freshly isolated T cells were fluorescently-labelled with 5 μM calcein-AM (Molecular Probes, Eugene, Oreg.) for 30 min at 37° C. in 5% CO2 at 5×10^6 cells/ml in RPMI. The cells were then washed three times with RPMI containing 5% FCS. Calcein-labelled T cells were resuspended in RPMI and 5×10^5 T cells/well were added to 96-well plates containing purified ECM components or BSA for the indicated times. Saturating concentrations of integrin-blocking mAbs (predetermined by flow cytometry) were preincubated with T cells for 30 min at 37° C. before adding T cells to the wells for the adhesion assay. Nonadherent cells were removed by a standardized washing technique that was developed to minimize background binding, which includes both an orbital and a rocking motion repeated three times with RPMI. Adhesion was quantified with a multiwell fluorescent spectrophotometer (Tecan, Groedig, Austria). For each experimental group the results were expressed as the mean percentage±SD of bound T cells from triplicate wells.

[5] = molecular target: B2; assay: pull-down from T cells with Gal-2-coated magnetic beads, Western blot; agrees with antibody blocking in flow cytometry
Protocol: A) Cells were preincubated with CD3, CD7, and β1 mAb (1:100 dilution) for 1 h at RT and then cultured for additional 24 h in the presence of 5 μg/ml galectin-2 coupled to biotin. Cells were then harvested and binding of galectin-2 to T cells determined by two-color flow cytometry using streptavidin labelled-APC to detect biotinylated sites. B) Galectin-1 coimmunoprecipitates with CD3, CD7 and β1 integrin, whereas galectin-2 coimmunoprecipitate only with integrin β1. Cells were incubated with galectin-1 or -2 coated tosyl-activated beads and subsequently lysed. Bead-bound cell fragments were separated magnetically and immunoblotted for CD3, CD7 or β1. Both graphs are representative for four different experiments yielding similar results.
For separation of galectin-2-associated complexes, 1×10⁸ tosylactivated, supermagnetic, polysterene coated beads (Dynalbeads, Dynal Biotech, Oslo, Norway) were coated either with 350 μg BSA, Galectin-1, Galectin-2, CD7, integrin-β1 or OKT3 overnight at 37° C. using tilt rotation. After incubation, the beads were washed in 0.2 M Tris (pH 8.5 containing 0.1% BSA), and then incubated with 2×10⁶ PBT for 1 h at 37° C. […]

[6] = molecular target: T1, BSA (UniProt P02769 25-607, coupled to tosylactivated magnetic beads); assay: pull-down from T cells with BSA-coated magnetic beads, Western blot
T1 construct: Negative control for the bead pull-down; also called BSA control
T1 sequence (P02769 25-607 limits assumed): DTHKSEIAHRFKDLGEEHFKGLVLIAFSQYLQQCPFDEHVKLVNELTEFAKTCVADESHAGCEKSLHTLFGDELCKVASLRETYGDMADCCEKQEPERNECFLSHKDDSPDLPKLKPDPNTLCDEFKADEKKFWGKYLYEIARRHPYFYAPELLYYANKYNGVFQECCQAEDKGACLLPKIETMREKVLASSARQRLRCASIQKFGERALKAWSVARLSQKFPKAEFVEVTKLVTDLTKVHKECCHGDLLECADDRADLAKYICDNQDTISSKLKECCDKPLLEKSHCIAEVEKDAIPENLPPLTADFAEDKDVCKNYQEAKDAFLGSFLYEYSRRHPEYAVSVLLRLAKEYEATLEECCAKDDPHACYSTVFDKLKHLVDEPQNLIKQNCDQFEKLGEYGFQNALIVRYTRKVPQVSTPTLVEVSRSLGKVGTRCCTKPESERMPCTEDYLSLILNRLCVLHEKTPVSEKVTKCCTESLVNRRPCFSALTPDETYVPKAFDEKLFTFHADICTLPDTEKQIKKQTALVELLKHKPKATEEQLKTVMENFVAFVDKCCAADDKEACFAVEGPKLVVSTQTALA

What does the source list for “galectin-1: prototype β-galactoside binding lectin used for comparison”?
glycoproteins co-immunoprecipitated [1]: coimmunoprecipitates with CD3, CD7 and β1 integrin; cyclin B1 expression [2]: 1%; β4 integrin accessibility [3]: neither galectin-1 nor galectin-2 changed; integrin α5 accessibility ([3]; 50 μg/ml): downregulated; integrin β1 accessibility ([3]; 50 μg/ml): downregulated; integrin a5 accessibility ([3]; second statement): slightly upregulated; cells adhering to collagen type I ([4]; without galectin 22.1±3.5%): 9.2±3.5%; cells adhering to fibronectin ([4]; without galectin 26.3±5.6%): 14.0±4.6%

Does B1 bind [5]?
Result: no binding

Does B2 bind [6]?
Result: no binding
